Source: patent US20150274719A1, “AMINO-SUBSTITUTED IMIDAZO[1,2-A]PYRIDINECARBOXAMIDES AND THEIR USE” (BAYER PHARMA AKTIENGESELLSCHAFT, priority 2012, published 2015)

Target: T1, recombinant guanylate cyclase reporter cell line (Rattus norvegicus, UniProt P19686+P20595)
T1 construct: expressed in transfected cells; host or cells: recombinant reporter cell line
T1 sequence (P19686 1-690): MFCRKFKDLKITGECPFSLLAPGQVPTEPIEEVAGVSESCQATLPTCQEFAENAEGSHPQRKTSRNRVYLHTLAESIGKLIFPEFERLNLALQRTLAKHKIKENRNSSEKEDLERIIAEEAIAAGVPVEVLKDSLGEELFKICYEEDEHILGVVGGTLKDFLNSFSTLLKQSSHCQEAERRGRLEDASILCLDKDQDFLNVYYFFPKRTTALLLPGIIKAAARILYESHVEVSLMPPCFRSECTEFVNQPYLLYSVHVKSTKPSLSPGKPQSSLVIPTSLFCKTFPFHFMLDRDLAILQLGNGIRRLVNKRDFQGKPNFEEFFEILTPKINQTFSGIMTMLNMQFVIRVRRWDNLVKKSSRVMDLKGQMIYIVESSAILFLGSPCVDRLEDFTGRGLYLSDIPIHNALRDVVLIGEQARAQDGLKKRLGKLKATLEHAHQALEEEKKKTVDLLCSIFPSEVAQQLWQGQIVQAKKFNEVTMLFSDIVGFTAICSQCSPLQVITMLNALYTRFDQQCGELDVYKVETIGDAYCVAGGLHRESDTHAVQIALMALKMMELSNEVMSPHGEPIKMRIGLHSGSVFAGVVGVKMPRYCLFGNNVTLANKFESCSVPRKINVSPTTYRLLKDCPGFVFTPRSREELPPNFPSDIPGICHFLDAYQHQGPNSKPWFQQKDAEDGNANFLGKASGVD
T1 sequence (P20595 1-619): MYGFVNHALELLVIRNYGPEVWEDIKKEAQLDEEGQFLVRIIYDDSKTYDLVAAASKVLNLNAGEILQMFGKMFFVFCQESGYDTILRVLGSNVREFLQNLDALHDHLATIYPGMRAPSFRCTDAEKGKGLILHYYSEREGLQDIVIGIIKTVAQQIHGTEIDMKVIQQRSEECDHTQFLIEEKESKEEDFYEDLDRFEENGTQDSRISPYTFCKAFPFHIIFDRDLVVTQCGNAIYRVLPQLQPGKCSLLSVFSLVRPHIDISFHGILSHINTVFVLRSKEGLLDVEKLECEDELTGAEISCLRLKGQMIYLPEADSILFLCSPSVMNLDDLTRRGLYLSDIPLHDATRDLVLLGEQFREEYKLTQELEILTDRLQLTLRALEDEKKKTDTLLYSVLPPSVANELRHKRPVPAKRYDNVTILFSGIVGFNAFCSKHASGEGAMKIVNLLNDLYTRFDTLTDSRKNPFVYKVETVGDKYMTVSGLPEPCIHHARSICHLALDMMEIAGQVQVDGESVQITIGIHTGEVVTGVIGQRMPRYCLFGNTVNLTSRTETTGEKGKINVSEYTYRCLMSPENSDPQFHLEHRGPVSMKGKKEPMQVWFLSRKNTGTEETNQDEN
Test: Action on recombinant guanylate cyclase reporter cell line
Format: cell-based
Details: in some cases mean values from individual determinations
Summary of the method: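 Cellular activity was measured in a reporter cell line expressing recombinant guanylate cyclase. Values are given as MEC, the minimal effective concentration, and some are means of individual determinations.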

Row | MEC (minimal effective concentration) [µM] | Structure (SMILES)
1 | 0.53 | Cc1nc2c(OCc3c(F)cccc3F)cccn2c1C(=O)NC(CN)c1ccc(Cl)cc1 (single isomer, unassigned; enantiomer b) [Example 15, ent-N-[2-Amino-1-(4-chlorophenyl)ethyl]-8-[(2,6-difluorobenzyl)oxy]-2-methylimidazo[1,2-a]-pyridine-3-carboxamide (Enantiomer B)]
2 | 0.55 | Cc1nc2c(OCc3c(F)cccc3F)cccn2c1C(=O)NC(CN)c1ccccc1 (single isomer, unassigned; enantiomer b) [Example 18, ent-N-(2-Amino-1-phenylethyl)-8-[(2,6-difluorobenzyl)oxy]-2-methylimidazo[1,2-a]pyridine-3-carboxamide (Enantiomer B)]
3 | 0.30 | CCCC(C)(N)CNC(=O)c1c(C)nc2c(OCc3c(F)cccc3F)cc(Cl)cn12 (single isomer, unassigned; enantiomer b) [Example 246, ent-N-(2-Amino-2-methylpentyl)-6-chloro-8-[(2,6-difluorobenzyl)oxy]-2-methylimidazo[1,2-a]-pyridine-3-carboxamide (Enantiomer B)]
4 | 1.00 | COCC(N)CNC(=O)c1c(C)nc2c(OCc3c(F)cccc3F)cccn12 (single isomer, unassigned; enantiomer b) [Example 248, ent-N-(2-Amino-3-methoxypropyl)-8-[(2,6-difluorobenzyl)oxy]-2-methylimidazo[1,2-a]pyridine-3-carboxamide (Enantiomer B)]
5 | 0.10 | Cc1nc2c(OCc3c(F)cccc3F)cccn2c1C(=O)NCC(C)(N)CCOCc1ccccc1 (single isomer, unassigned; enantiomer b) [Example 267, ent-N-[2-Amino-4-(benzyloxy)-2-methylbutyl]-8-[(2,6-difluorobenzyl)oxy]-2-methylimidazo[1,2-a]pyridine-3-carboxamide (Enantiomer B)]
6 | 0.65 | Cc1cc(OCc2c(F)cccc2F)c2nc(C)c(C(=O)NCC(C)(N)CO)n2c1 (single isomer, unassigned; enantiomer b) [Example 269, ent-N-(2-Amino-3-hydroxy-2-methylpropyl)-8-[(2,6-difluorobenzyl)oxy]-2,6-dimethylimidazo-[1,2-a]pyridine-3-carboxamide (Enantiomer B)]
7 | 0.3 | CCCC(C)(N)CNC(=O)c1c(C)nc2c(OCc3c(F)cccc3F)cc(OC)cn12 (single isomer, unassigned; enantiomer b) [Example 278, ent-N-(2-amino-2-methylpentyl)-8-[(2,6-difluorobenzyl)oxy]-6-methoxy-2-methylimidazo[1,2-a]pyridine-3-carboxamide (Enantiomer B)]
8 | 0.65 | CCCC(C)(N)CNC(=O)c1c(C)nc2c(OCc3c(F)cccc3F)cc(N3CCOCC3)cn12 (single isomer, unassigned; enantiomer b) [Example 280, ent-N-(2-amino-2-methylpentyl)-8-[(2,6-difluorobenzyl)oxy]-2-methyl-6-(morpholin-4-yl)imidazo[1,2-a]pyridine-3-carboxamide (Enantiomer B)]
9 | 0.3 | CCCC(C)(N)CNC(=O)c1c(C)nc2c(OCc3c(F)cccc3F)cc(C(F)F)cn12 (single isomer, unassigned; enantiomer b) [Example 290, ent-N-(2-amino-2-methylpentyl)-8-[(2,6-difluorobenzyl)oxy]-6-(difluoromethyl)-2-methyl-imidazo[1,2-a]pyridine-3-carboxamide (Enantiomer B)]
10 | 0.30 | Cc1cc(OCc2c(F)cccc2F)c2nc(C)c(C(=O)NC3CCC3N)n2c1 (single isomer, unassigned; enantiomer b) [Example 329, ent-N-(2-aminocyclobutyl)-8-[(2,6-difluorobenzyl)oxy]-2,6-dimethylimidazo[1,2-a]pyridine-3-carboxamide (Enantiomer B)]
11 | 1.00 | Cc1cc(OCc2c(F)cccc2F)c2nc(C)c(C(=O)NC3CCC3(C)N)n2c1 (single isomer, unassigned; enantiomer b) [Example 333, ent-N-[2-amino-2-methylcyclobutyl]-8-[(2,6-difluorobenzyl)oxy]-2,6-dimethylimidazo[1,2-a]pyridine-3-carboxamide (Enantiomer B)]
12 | 0.55 | Cc1cc(OCc2c(F)cccc2F)c2nc(C)c(C(=O)NC3(C)CCC3(C)N)n2c1 (single isomer, unassigned; enantiomer b) [Example 337, ent-N-[(2-amino-1,2-dimethylcyclobutyl]-8-[(2,6-difluorobenzyl)oxy]-2,6-dimethylimidazo[1,2-a]pyridine-3-carboxamide (Enantiomer B)]
13 | 0.30 | Cc1cc(OCc2c(F)cccc2F)c2nc(C)c(C(=O)NCC(N)C#N)n2c1 (single isomer, unassigned; enantiomer b) [Example 402, ent-N-(2-amino-2-cyanoethyl)-8-[(2,6-difluorobenzyl)oxy]-2,6-dimethylimidazo[1,2-a]pyridine-3-carboxamide (Enantiomer B)]
14 | 0.30 | Cc1nc2c(OCc3c(F)cccc3F)cc(Cl)cn2c1C(=O)NC1CNCc2ccccc21 (single isomer, unassigned; ent-6) [Example 107, ent-6-chloro-8-[(2,6-difluorobenzyl)oxy]-2-methyl-N-(1,2,3,4-tetrahydroisoquinolin-4-yl)imidazo[1,2-a]pyridine-3-carboxamide]
15 | 1.00 | Cc1nc2c(OCc3c(F)cccc3F)cc(Cl)cn2c1C(=O)NC1CNCc2ccccc21 (single isomer, unassigned; ent-6) [Example 108, ent-6-chloro-8-[(2,6-difluorobenzyl)oxy]-2-methyl-N-(1,2,3,4-tetrahydroisoquinolin-4-yl)imidazo[1,2-a]pyridine-3-carboxamide]
16 | 1.00 | Cc1nc2c(OCc3c(F)cccc3F)cc(Cl)cn2c1C(=O)NCC1CCCCN1 (single isomer, unassigned; ent-6) [Example 190, ent-6-Chloro-8-[(2,6-difluorobenzyl)oxy]-2-methyl-N-(piperidin-2-ylmethyl)imidazo[1,2-a]-pyridine-3-carboxamide]
17 | 1.00 | Cc1nc2c(OCc3c(F)cccc3F)cc(Cl)cn2c1C(=O)NCC1CCCCN1 (single isomer, unassigned; ent-6) [Example 191, ent-6-Chloro-8-[(2,6-difluorobenzyl)oxy]-2-methyl-N-(piperidin-2-ylmethyl)imidazo[1,2-a]-pyridine-3-carboxamide]
18 | 0.30 | Cc1nc2c(OCc3c(F)cccc3F)cccn2c1C(=O)NC1CNc2ccccc21 (single isomer, unassigned; ent-8) [Example 47, ent-8-[(2,6-Difluorobenzyl)oxy]-N-(2,3-dihydro-1H-indol-3-yl)-2-methylimidazo[1,2-a]pyridine-3-carboxamide]
19 | 0.03 | Cc1nc2c(OCc3c(F)cccc3F)cccn2c1C(=O)NC1CCNc2ccccc21 (single isomer, unassigned; ent-8) [Example 52, ent-8-[(2,6-Difluorobenzyl)oxy]-2-methyl-N-(1,2,3,4-tetrahydroquinolin-4-yl)imidazo[1,2-a]-pyridine-3-carboxamide]

Row | Structure (SMILES) | MEC (minimal effective concentration) [µM]
20 | Cc1cc(OC(C)c2c(F)cccc2F)c2nc(C)c(C(=O)NCC(C)(C)N)n2c1 (single isomer, unassigned; enantiomer b) [Example 256, ent-N-(2-Amino-2-methylpropyl)-8-[1-(2,6-difluorophenyl)ethoxy]-2,6-dimethylimidazo[1,2-a]-pyridine-3-carboxamide (Enantiomer B)] | 3.00
